According to the NIST ThermoML archive (doi:10.1016/j.tca.2008.11.005):
± gives the expanded uncertainty stated by the source.

Settings: Liquid

C[SiH]1O[SiH](C)O[SiH](C)O[SiH](C)O[SiH](C)O1 (stereo not given) [2,4,6,8,10-pentamethylcyclopentasiloxane]
vapor or sublimation pressure (330.8 K): 1.325 kPa | vapor or sublimation pressure (348.03 K): 3.325 ± 4 kPa | vapor or sublimation pressure (357.45 K): 5.325 ± 4.1 kPa | vapor or sublimation pressure (364.75 K): 7.325 ± 4.2 kPa | vapor or sublimation pressure (370.73 K): 9.325 ± 4.2 kPa | vapor or sublimation pressure (375.49 K): 11.32 ± 4.3 kPa | vapor or sublimation pressure (378.23 K): 13.32 ± 4.4 kPa | vapor or sublimation pressure (381.78 K): 15.32 ± 4.5 kPa | vapor or sublimation pressure (385.02 K): 17.32 ± 4.5 kPa | vapor or sublimation pressure (387.96 K): 19.32 ± 4.6 kPa | vapor or sublimation pressure (390.75 K): 21.32 ± 4.7 kPa | vapor or sublimation pressure (393.18 K): 23.32 ± 4.8 kPa | vapor or sublimation pressure (395.46 K): 25.32 ± 4.9 kPa | vapor or sublimation pressure (397.89 K): 27.32 ± 4.9 kPa | vapor or sublimation pressure (399.92 K): 29.32 ± 5 kPa | vapor or sublimation pressure (401.9 K): 31.32 ± 5.1 kPa | vapor or sublimation pressure (403.77 K): 33.33 ± 5.2 kPa | vapor or sublimation pressure (405.7 K): 35.33 ± 5.2 kPa | vapor or sublimation pressure (407.22 K): 37.33 ± 5.3 kPa | vapor or sublimation pressure (408.94 K): 39.33 ± 5.4 kPa | vapor or sublimation pressure (410.46 K): 41.33 ± 5.5 kPa | vapor or sublimation pressure (411.98 K): 43.33 ± 5.6 kPa | vapor or sublimation pressure (413.4 K): 45.33 ± 5.6 kPa | vapor or sublimation pressure (414.87 K): 47.33 ± 5.7 kPa | vapor or sublimation pressure (416.19 K): 49.33 ± 5.8 kPa | vapor or sublimation pressure (417.55 K): 51.33 ± 5.9 kPa | vapor or sublimation pressure (423.53 K): 61.33 ± 6.3 kPa | vapor or sublimation pressure (429.06 K): 71.33 ± 6.6 kPa | vapor or sublimation pressure (433.77 K): 81.33 ± 7 kPa | vapor or sublimation pressure (437.93 K): 91.33 ± 7.4 kPa

CCO [ethanol]
vapor or sublimation pressure (303.95 K): 11.32 ± 4.3 kPa | vapor or sublimation pressure (315.75 K): 21.32 ± 4.7 kPa | vapor or sublimation pressure (323.5 K): 31.32 ± 5.1 kPa | vapor or sublimation pressure (329.35 K): 41.33 ± 5.5 kPa | vapor or sublimation pressure (334.05 K): 51.33 ± 5.9 kPa | vapor or sublimation pressure (338.05 K): 61.33 ± 6.3 kPa | vapor or sublimation pressure (341.65 K): 71.33 ± 6.7 kPa | vapor or sublimation pressure (344.75 K): 81.33 ± 7.1 kPa | vapor or sublimation pressure (347.55 K): 91.33 ± 7.5 kPa | vapor or sublimation pressure (350.15 K): 101.33 ± 7.9 kPa
